Columns and labels:
[1] = Solubility in aqueous buffer; assay type: physicochemical; conditions: pH 7.4, aqueous buffer
[2] = Analytical RP-HPLC retention as a measure of hydrophobicity; assay type: physicochemical; conditions: longer retention time compared to native EETI-II, Fig. 1

CCCCCCCCCCCCCCCC(=O)NCCCC[C@H](N)C(=O)NCC(=O)N[C@@H](CO)C(=O)NCC(=O)N[C@@H](CO)C(=O)NCC(=O)N[C@H]1CSSC[C@@H]2NC(=O)CNC(=O)[C@H](C)NC(=O)[C@H](CC(C)C)NC(=O)[C@@H]3CSSC[C@@H](C(=O)NCC(=O)O)NC(=O)[C@H](Cc4ccccc4)NC(=O)CNC(=O)[C@H](CC(N)=O)NC(=O)[C@@H]4CCCN4C(=O)CNC(=O)[C@H](CSSC[C@H](NC(=O)[C@H](CCCNC(=N)N)NC(=O)[C@H](CCSC)NC(=O)[C@H](CC(C)C)NC(=O)[C@H]([C@@H](C)CC)NC(=O)[C@H](CCCNC(=N)N)NC(=O)[C@@H]4CCCN4C1=O)C(=O)N[C@@H](CCCCN)C(=O)N[C@@H](CCC(N)=O)C(=O)N[C@@H](CC(=O)O)C(=O)N[C@@H](CO)C(=O)N[C@@H](CC(=O)O)C(=O)N3)NC(=O)[C@H](C(C)C)NC2=O [CKP-C16, EETI-II-C16]
solubility [1]: > 500 µM
hydrophobicity by analytical RP-HPLC retention time (in words) [2]: more hydrophobic than EETI-II (CKP)

— paper PMC9419673 (Nanoscale Advances, 2021)
